Laboratory results from patent publication US9617256B2 (priority 2007, dated 2017).
≈ marks a conversion by molar mass, not a printed value.

Legend:
APAE001 (ATCC27853) = experiment: MIC broth microdilution, APAE001; type: cell-based, P. aeruginosa; settings: Pseudomonas aeruginosa, ATCC27853, read-out: MIC APAE001, APAE001 is ATCC27853
In short: (§1)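 Incubation: 35° C., ambient air, 18-24 h. Medium: cation-adjusted Mueller-Hinton broth with 2-fold serial dilutions of drug. Inoculum: 3×10^5–7×10^5 CFU/mL final, per CLSI microdilution method.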

AECO001 (ATCC25922) = experiment: MIC broth microdilution, AECO001; type: cell-based, E. coli; settings: Escherichia coli, ATCC25922, read-out: MIC AECO001
In short: as §1

[1] = test system: AECO063 (ATCC25922 bearing an acrAB mutation); experiment: microbe, parasite or virus in culture; type: cell-based, E. coli; settings: Escherichia coli, ATCC25922, read-out: MIC AECO063
In short: as §1

[2] = test system: APAE006 (strain of P. aeruginosa in which all efflux pumps are inactivated); experiment: microbe, parasite or virus in culture; type: cell-based; settings: Pseudomonas aeruginosa, read-out: MIC APAE006, P. aeruginosa, all efflux pumps inactivated
In short: (§2)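 CLSI broth microdilution in cation-adjusted Mueller-Hinton broth, final inoculum 3×10^5–7×10^5 CFU/mL, 2-fold drug dilutions, 18-24 hours at 35° C. in ambient air. APAE006 is an efflux-pump-inactivated P. aeruginosa strain. Assay performance monitored with QC strains and levofloxacin.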

[3] = test system: APAE006 in the presence of 8 micrograms per milliliter of polymyxin B nonapeptide; type: cell-based, P. aeruginosa; settings: in the presence of 8 micrograms per milliliter of polymyxin B nonapeptide
In short: as §2

[4] = test system: ASAU001 (laboratory strain of S. aureus, ATCC29213); experiment: MIC broth microdilution, ASAU001; type: cell-based; settings: Staphylococcus aureus, ATCC29213, read-out: MIC ASAU001
In short: as §1

AECO001 HSA AGP = experiment: MIC broth microdilution, AECO001 HSA AGP; type: cell-based, E. coli; settings: Escherichia coli
In short: as §1

[5] = test system: AABA1060 (clinical isolate of Acinetobacter baumannii); experiment: MIC broth microdilution, AABA1060; type: cell-based; settings: Acinetobacter baumannii, read-out: MIC AABA1060
In short: as §1

SMILES | MIC (APAE001 (ATCC27853)) [µg/mL] | MIC (AECO001 (ATCC25922)) [µg/mL] | MIC [1] [µg/mL] | MIC [2] [µg/mL] | MIC APAE006 + PMBN [3] | MIC [4] [µg/mL] | MIC (AECO001 HSA AGP) [µg/mL] | MIC [5] [µg/mL]
CC(=O)NC[C@H](NC(=O)c1ccc(/C=C/C#Cc2ccc(CN3CCOCC3)cc2)cc1)C(=O)NO [Example 111-3, N-[2-acetylamino-1-((S)-hydroxycarbamoyl)-ethyl]-4-[(E)-4-(4-morpholin-4-ylmethyl-phenyl)-but-1-en-3-ynyl]-] | 2 to 16 (≈ 4.08 to 32.6 µM) | < 2 | < 2 | < 2 | A (MIC's of 2.0 μg/mL or less = A) | > 64 | 2 to 16 (≈ 4.08 to 32.6 µM) | 2 to 16 (≈ 4.08 to 32.6 µM)
C[C@@H](N)[C@H](NC(=O)c1ccc(/C=C/C#Cc2ccc(CO)cc2)cc1)C(=O)NO [Example 112-1] | < 2 | < 2 | < 2 | < 2 | A (MIC's of 2.0 μg/mL or less = A) | > 64 | 16 to 64 (≈ 40.7 to 163 µM) | 2 to 16 (≈ 5.08 to 40.7 µM)
NC[C@H](NC(=O)c1ccc(/C=C/C#Cc2ccc(CO)cc2)cc1)C(=O)NO [Example 112-2] | 2 to 16 (≈ 5.27 to 42.2 µM) | 2 to 16 (≈ 5.27 to 42.2 µM) | < 2 | < 2 | A (MIC's of 2.0 μg/mL or less = A) | > 64 | 16 to 64 (≈ 42.2 to 169 µM) | > 64
C[C@@H](O)[C@H](NC(=O)c1ccc(/C=C/C#Cc2ccc(CO)cc2)cc1)C(=O)NO [Example 112-3] | 2 to 16 (≈ 5.07 to 40.6 µM) | < 2 | < 2 | < 2 | A (MIC's of 2.0 μg/mL or less = A) | 16 to 64 (≈ 40.6 to 162 µM) | 16 to 64 (≈ 40.6 to 162 µM) | 16 to 64 (≈ 40.6 to 162 µM)
CO[C@H](C)[C@H](NC(=O)c1ccc(/C=C/C#Cc2ccc(CO)cc2)cc1)C(=O)NO [Example 112-4] | < 2 | < 2 | < 2 | < 2 | A (MIC's of 2.0 μg/mL or less = A) | 16 to 64 (≈ 39.2 to 157 µM) | 2 to 16 (≈ 4.9 to 39.2 µM) | < 2
CC(C)(O)[C@H](NC(=O)c1ccc(/C=C/C#Cc2ccc(CO)cc2)cc1)C(=O)NO [Example 112-5] | < 2 | < 2 | < 2 | < 2 | A (MIC's of 2.0 μg/mL or less = A) | 16 to 64 (≈ 39.2 to 157 µM) | 2 to 16 (≈ 4.9 to 39.2 µM) | < 2
NC[C@H](NC(=O)c1ccc(/C=C/C#Cc2ccc(CNC3CC3)cc2)cc1)C(=O)NO [Example 113-1] | 2 to 16 (≈ 4.78 to 38.2 µM) | < 2 | < 2 | < 2 | A (MIC's of 2.0 μg/mL or less = A) | > 64 | 2 to 16 (≈ 4.78 to 38.2 µM) | 16 to 64 (≈ 38.2 to 153 µM)
C[C@@H](N)[C@H](NC(=O)c1ccc(/C=C/C#Cc2ccc(CNC3CC3)cc2)cc1)C(=O)NO [Example 113-2] | < 2 | < 2 | < 2 | < 2 | A (MIC's of 2.0 μg/mL or less = A) | > 64 | 2 to 16 (≈ 4.62 to 37 µM) | 2 to 16 (≈ 4.62 to 37 µM)
C[C@@H](O)[C@H](NC(=O)c1ccc(/C=C/C#Cc2ccc(CNC3CC3)cc2)cc1)C(=O)NO [Example 113-3] | 2 to 16 (≈ 4.61 to 36.9 µM) | < 2 | < 2 | < 2 | A (MIC's of 2.0 μg/mL or less = A) | > 64 | 2 to 16 (≈ 4.61 to 36.9 µM) | 2 to 16 (≈ 4.61 to 36.9 µM)
C[C@H](O)[C@H](NC(=O)c1ccc(/C=C/C#Cc2ccc(CNC3CC3)cc2)cc1)C(=O)NO [Example 113-4] | 2 to 16 (≈ 4.61 to 36.9 µM) | < 2 | < 2 | < 2 | A (MIC's of 2.0 μg/mL or less = A) | > 64 | 2 to 16 (≈ 4.61 to 36.9 µM) | 2 to 16 (≈ 4.61 to 36.9 µM)
CC(C)(O)[C@H](NC(=O)c1ccc(/C=C/C#Cc2ccc(CNC3CC3)cc2)cc1)C(=O)NO [Example 113-5] | < 2 | < 2 | < 2 | < 2 | A (MIC's of 2.0 μg/mL or less = A) | 16 to 64 (≈ 35.8 to 143 µM) | < 2 | < 2
CO[C@H](C)[C@H](NC(=O)c1ccc(/C=C/C#Cc2ccc(CNC3CC3)cc2)cc1)C(=O)NO [Example 113-7] | 2 to 16 (≈ 4.47 to 35.8 µM) | < 2 | < 2 | < 2 | A (MIC's of 2.0 μg/mL or less = A) | > 64 | 2 to 16 (≈ 4.47 to 35.8 µM) | 2 to 16 (≈ 4.47 to 35.8 µM)
